# Test results as given in patent US7273723B2, “Antibiotic-based gene regulation system” (priority 2001, dated 2007).
# Key:
# Format in all cases: cell-based
# [1] = test system: PSV40 or PhCMV-driven SEAP expression constructs; assay: SEAP expression from constitutive PSV40 or PhCMV-driven constructs with erythromycin; conditions: data not shown
# [2] = test system: ET1 (MphR(A)-VP16) / PETR promoters; assay: SEAP reporter assay, CHO lines stably expressing ET1 (CHO-ET11, CHO-ET12) transiently transfected with PETR-SEAP plasmids; conditions: for SEAP Production (%) +EM: 2 μg/ml EM, −EM = 100; for SEAP activity [U/L] + EM: erythromycin 2 μg/ml
# Protocol: (§1) Chinese hamster ovary cells (CHO-K1, ATCC: CCL 61), and HeLa cells (ATCC: CRL-7923) as well as stable cell lines derived thereof were cultured as described before (Fussenegger et al., 1998, Nat. Biotechnol. 16,468-472) in the presence of appropriate antibiotics: G418 400 μg/ml; zeocin 100 μg/ml. Optimized CaPO4 protocols were used for high efficiency transient transfection of all cell lines (Fussenegger et al., 1998. Nat. Biotechnol. 16: 468-472). Transiently transfected cells were routinely analyzed after 48 h for CFP or SEAP expression using fluorescence microscopy and p-nitrophenolphosphate-based light absorbance timecourse, respectively, as described before (Fussenegger et al., 1998, Nat. Biotechnol. 16, 468-472; Berger et al., 1988, Gene 66, 1-10 b). For construction of stable CHO-ET1 and CHO-Triplet42 cell lines, CHO-Ki and CHO-TWIN1108 (Disclosed in PCT application no. 00/65080) were cotransfected with pWW35 and pZeoSV2 (invitrogen). CHO-ET11-SEAP was constructed by cotransfection of pWW38 and pSV2neo (Clontech) into CHO-ET11. The mixed populations were cloned using FACS-mediated single-cell-sorting (FACStar^Plus; Beckton Dickinson). For assessment of dose-response characteristics of PETR3-regulated gene expression, CHO-ET11-SEAP were cultured at cell densities of 50,000/ml for 48 h at various EM concentrations.
# (§2) Other antibiotics were eluted from antibiotic test discs (Mast Diagnostica GmbH, Reinfeld, Germany, or bioMérieux, Geneva Switzerland) in cell culture medium at 37° C. for 12 h to reach a final concentration of 30 μg/ml. All macrolide antibiotics were used at a 2 μg/ml concentration unless indicated otherwise.
# Two representative clones, CHO-ET11 and CHO-ET12, were chosen at random among ET1-expressing CHO cell clones stably transfected with a constitutive ET1 expression construct (pWW35).
# Access to alternative effective antibiotics would expand the spectrum of regulating agents available for future use in human cell and gene therapy. Accordingly, several commercially available antibiotic sources were tested for their potential to regulate the ET1/PETR3 system as shown below in Table 3.
# The effect of the different spacer length in promoters PETR2 and PETR7-PETR11 were examined by transfecting the corresponding plasmids (pWW37, pBP10-pBP14) into a CHO cell line stably transfected with the transactivator ET1 (MphR(A)-VP 16, see example 1).
# [3] = test system: ET1 / plant promoters PETRp1, PETRp8; assay: EpOFF erythromycin-repressible GUS expression in Nicotiana tabacum SR1 suspension cells; conditions: erythromycin 250 μg/ml, 48 hours
# Protocol: The transformation protocol of SR1 cells was adapted from Wu and Feng (1999, Plant Cell Reports 18: 381-386). In brief, 200 mg of exponentially growing SR1 cells were harvested by centrifugation. The cells were incubated for 15 min. in 2% DMSO and washed twice in fresh medium. Cells were subsequently resuspended in electroporation buffer (5 mM CaCl2; 10 mM NaCl2; 0.4 M sucrose; 8.7% glycerol; 4 mM ascorbate; 10 mM HEPES; pH 6.8) and mixed with desired DNA at a concentration of 0.2 μg/μl. The cell-DNA mixture was incubated for 10 min. on ice electroporated at 700 V/cm and 980 μF using a BioRad Gene Pulser and appropriate cuvettes. […]
# Transformed SR1 cells were incubated at 25° C. for 48 h while rocking at 110 rpm. […] Protein concentration of plant extracts was determined using a Bradford assay (Bradford, 1976, Anal. Biochem. 72: 248-254). […] The fluorescence time course was determined using typical 365 nm/455 nm excitation/emission profiles and a Shimadzu RF-5001 PC spectrofluorophotometer.
# pBP6 (PCaMV35S-ET1-pAocs, FIG. 9a) was cotransformed either with pBP 18 (PETRp1-GUS-pA35S; FIG. 9b) or pBP36 (PETRp8-GUS-pA35S; FIG. 9b) by electroporation into the Nicotiana tabacum cell line SR1. GUS activity was assessed after 48 hours using a fluorescence-based detection technology.
# [4] = test system: ET1 / erythromycin-responsive promoter PETR3; assay: SEAP assay in CHO-Triplet42 transfected with PETR3-SEAP (pWW38); conditions: CHO-Triplet42 + PWW38 (PETR3); antibiotic 2 μg/ml; 48 h
# Protocol: as §1, §2
# The regulation performance of the EM-based regulation system was compared directly with the widely used TET- and PIP responsive expression concepts. To this end, we have constructed a stable CHO-K1-derived cell line expressing ET1, PIT and tTA (CHO-Triplet42). […] CHO-Triplet42 was transfected with either isogenic (i) PETR3-(pWW38), (ii) a PPIR-(pristinamycin-responsive promoter, pMF172, Fussenegger et al., 2000. supra.), or (iii) a PhCMV*-1-(tetracycline-responsive promoter, pMF111, Fussenegger et al., 2000. supra) driven SEAP expression vector to assess the individual regulation performance of the three antibiotic-responsive gene regulation systems in CHO cells (Table 5).
# To analyze the relative regulatory characteristics, we evaluated induction factors (IF; ratio of maximal expression level to antibiotic-repressed expression level).
# These repressive effects are still in a range which is tolerable for use in potential medical applications.
smiles,measurement,setting,value
CC[C@H]1OC(=O)[C@H](C)[C@@H](O[C@H]2C[C@@](C)(OC)[C@@H](O)[C@H](C)O2)[C@H](C)[C@@H](O[C@@H]2O[C@H](C)C[C@H](N(C)C)[C@H]2O)[C@](C)(O)C[C@@H](C)C(=O)[C@H](C)[C@@H](O)[C@]1(C)O [Erythromycin],Influence on expression levels of PSV40 or PhCMV-driven SEAP expression constructs,[1],no influence
same,SEAP Production (%) +EM,[2]; CHO-ET11 + PETR3-SEAP (pWW38),1.75 ± 0.1%
same,SEAP production [%],"[2]; CHO-ET11 transiently transfected with pWW38, 48 h, antibiotic 2 μg/ml, no macrolide = 100",1.7 ± 0.1%
same,SEAP Production (%) +EM,[2]; CHO-ET12 + PETR3-SEAP (pWW38),4.67 ± 0.8%
same,Reversibility of EM-responsive SEAP regulation,"[2]; both CHO-ET1 derivatives, repeated cycles of addition and withdrawal",fully reversible
same,SEAP activity [U/L] + EM,"[2]; pBP10 (PETR7, 2 bp) in CHO stably transfected with ET1, 48 h",4.2 ± 1.0 U/L
same,SEAP activity [U/L] + EM,"[2]; pBP12 (PETR9, 6 bp) in CHO stably transfected with ET1, 48 h",8.4 ± 1.6 U/L
same,SEAP activity [U/L] + EM,"[2]; pBP13 (PETR10, 8 bp) in CHO stably transfected with ET1, 48 h",19.7 ± 1.4 U/L
same,SEAP activity [U/L] + EM,"[2]; pWW37 (PETR2, 0 bp) in CHO stably transfected with ET1, 48 h",8.3 ± 0.2 U/L
same,GUS expression level in the presence of erythromycin,[3]; pBP6 + pBP18 (PETRp1),32.2±3.9 pmoles 4-MU min^−1 mg^−1 protein^−1
same,GUS expression level in the presence of erythromycin,[3]; pBP6 + pBP36 (PETRp8),44.2±4.6 pmoles 4-MU min^−1 mg^−1 protein^−1
same,SEAP activity [U/L],[4],3.8 ± 0.4 U/L
